For series [1] the following is noted: for mass density: 101.33 kPa, Liquid, Vibrating tube method.
Series [2] can be described thus: xn = mol fraction of the nth substance listed. The note with it: x2 = 0.

± gives the expanded uncertainty stated by the source.

In general, surface tension liquid-gas refers to the work needed to enlarge the surface of a liquid by unit area. Broadly, the mass density is the mass of a sample divided by its volume.

For `CCCC(=O)O` [butanoic acid], the surface tension liquid-gas in series [1] (293.15 K) was found to be 26.73 ± 0.78 mN/m; in series [1] (298.15 K) it was 26.19 ± 0.77 mN/m; in series [1] (303.15 K) it was 25.56 ± 0.76 mN/m; in series [1] (308.15 K) it was 25.03 ± 0.75 mN/m. The mass density in series [1] (293.15 K) is 957.61 ± 0.13 kg/m3; in series [1] (298.15 K), 952.77 ± 0.13 kg/m3; in series [1] (303.15 K), 947.94 ± 0.13 kg/m3; in series [1] (308.15 K) it was 942.91 ± 0.13 kg/m3.

For the compound `CCCCCC(=O)O` [hexanoic acid], the surface tension liquid-gas in series [1] (293.15 K) is given as 28.12 ± 0.8 mN/m; in series [1] (298.15 K), 27.54 ± 0.79 mN/m; in series [1] (303.15 K) it was 27.12 ± 0.78 mN/m; in series [1] (308.15 K), 26.66 ± 0.78 mN/m. Also, the mass density in series [1] (293.15 K) is listed as 925.38 ± 0.14 kg/m3; in series [1] (298.15 K), 921.2 ± 0.14 kg/m3; in series [1] (303.15 K), 917.02 ± 0.14 kg/m3; in series [1] (308.15 K), 912.6 ± 0.14 kg/m3.

Take `CCCCC(=O)O` [pentanoic acid]: the surface tension liquid-gas is 27.13 ± 0.79 mN/m in series [1] (293.15 K), 26.8 ± 0.79 mN/m in series [1] (298.15 K), 26.23 ± 0.78 mN/m in series [1] (303.15 K) and 25.8 ± 0.77 mN/m in series [1] (308.15 K). Moreover, the mass density amounted to 938.29 ± 0.3 kg/m3 in series [1] (293.15 K), 933.9 ± 0.3 kg/m3 in series [1] (298.15 K), 929.39 ± 0.3 kg/m3 in series [1] (303.15 K) and 924.73 ± 0.3 kg/m3 in series [1] (308.15 K).

Take `CCC(=O)O` [propanoic acid]: the surface tension liquid-gas in series [1] (293.15 K) worked out at 26.68 ± 0.78 mN/m; in series [1] (298.15 K), 26.11 ± 0.77 mN/m; in series [1] (303.15 K), 25.7 ± 0.76 mN/m; in series [1] (308.15 K) it was 25.16 ± 0.76 mN/m. The mass density in series [1] (293.15 K) was 993.42 ± 0.12 kg/m3; in series [1] (298.15 K), 988.21 ± 0.12 kg/m3; in series [1] (303.15 K), 982.88 ± 0.12 kg/m3; in series [1] (308.15 K), 977.43 ± 0.12 kg/m3.

In the case of `O` [water] + CCC(=O)O, the surface tension liquid-gas in series [2] (293.15 K) is 72.58 ± 1.4 mN/m; in series [2] (298.15 K), 71.81 ± 1.4 mN/m; in series [2] (303.15 K), 71.04 ± 1.4 mN/m; in series [2] (308.15 K), 70.23 ± 1.4 mN/m.

Take `O` [water] + CCCC(=O)O: the surface tension liquid-gas in series [2] (293.15 K) is given as 72.58 ± 1.4 mN/m; in series [2] (298.15 K), 71.81 ± 1.4 mN/m; in series [2] (303.15 K), 71.04 ± 1.4 mN/m; in series [2] (308.15 K) it was 70.23 ± 1.4 mN/m.

On to `O` [water] + CCCCC(=O)O, for which the surface tension liquid-gas in series [2] (293.15 K) was 72.58 ± 1.4 mN/m; in series [2] (298.15 K), 71.81 ± 1.4 mN/m; in series [2] (303.15 K) it was 71.04 ± 1.4 mN/m; in series [2] (308.15 K) it was 70.23 ± 1.4 mN/m.

Turning to `O` [water] + CCCCCC(=O)O, the surface tension liquid-gas in series [2] (293.15 K) stood at 72.58 ± 1.4 mN/m; in series [2] (298.15 K), 71.81 ± 1.4 mN/m; in series [2] (303.15 K), 71.04 ± 1.4 mN/m; in series [2] (308.15 K), 70.23 ± 1.4 mN/m.

These data come from the NIST ThermoML archive (doi:10.1021/je1002829).
